Reference: patent publication US4166182A, “6-N-Propyl-8-methoxymethyl or methylmercaptomethylergolines and related compounds” (priority 1978, dated 1979)
Counter-ions that a name gives are not always drawn. Like-named read-outs stand apart in the source and are kept apart here.

Key:
Parkinsonism = details: in vivo; cited from earlier work
prolactin [1] = details: cited from earlier work
[2] = tested on: 6-hydroxydopamine-lesioned rats; experiment: Turning behavior in 6-hydroxydopamine-lesioned (nigro-neostriatal-lesioned) rats; assay type: in vivo, rat; details: for Latency of Effect: 1 mg./kg. (Table I); for responders at 1 mg/kg: Rattus norvegicus, read-out: % of Rats Exhibiting Turning Behavior
Procedure: In this test, nigro-neostriatal-lesioned rats are employed, which are prepared by the procedure of Ungerstedt and Arbuthnott, Brain Res, 24, 485 (1970). A compound having dopamine agonist activity causes the rats to turn in circles contralateral to the side of the lesion. After a latency period, which varies from compound to compound, the number of turns is counted over a 15-minute period.
The compounds were dissolved in water and the aqueous solution injected into the rat by the intraperitoneal route.

prolactin [3] = experiment: Inhibition of serum prolactin in reserpine-treated male rats; assay type: in vivo, Sprague-Dawley rat; design: Serum Prolactin Level: unit not given here; details: for Serum Prolactin Level: reserpine-pretreated, controls: Exp. 1 30.4 ± 3.4, Exp. 2 55.2 ± 4.1, Exp. 3 42.3 ± 7.3; for inhibition in vivo at 0.05 mg/kg: Rattus norvegicus, read-out: Percent Inhibition of Serum Prolactin
Procedure: Adult male rats of the Sprague-Dawley strain weighing about 200 g. were housed in an air-conditioned room with controlled lighting (lights on 6 a.m.-8 p.m.) and fed lab chow and water ad libitum. Each rat received an intraperitoneal injection of 2.0 mg. of reserpine in aqueous suspension 18 hours before administration of the ergoline derivative. The purpose of the reserpine was to keep prolactin levels uniformly elevated. The compounds under test were dissolved in 10 percent ethanol at a concentration of 10 mcg/ml. and were injected intraperitoneally at a standard dose of 50 mcg/kg. Each compound was administered to a group of 10 rats, and a control group of 10 intact males received an equivalent amount of 10 percent ethanol. One hour after treatment all rats were killed by decapitation, and 150 μl aliquots of serum were assayed for prolactin. The results were evaluated statistically using Student's "t" test to calculate the level of significance, "p", of the changes in prolactin level.

serotonin = experiment: Serotonin agonism
dopamine receptors = details: cited from earlier work
[4] = 50 mcg/kg IP, 1 hour after treatment

## CC(C)C[C@H]1C(=O)N2CCC[C@H]2[C@]2(O)O[C@](NC(=O)[C@@H]3C=C4c5cccc6[nH]c(Br)c(c56)C[C@H]4N(C)C3)(C(C)C)C(=O)N12 [2-bromo-α-ergokryptine]
Parkinsonism
  usefulness in the treatment of Parkinsonism (in words): useful in the treatment of Parkinsonism
Prolactin [1]
  activity as prolactin inhibitors (in words): activity as prolactin inhibitors

## CCCN1C[C@H](CSC)C[C@@H]2c3cccc4[nH]c(Br)c(c34)C[C@H]21 [D-2-bromo-6-n-propyl-8β-methylmercaptomethylergoline mesylate]
[2]; IP, 1 mg./kg.
  Duration of Effect: 1 h
[2]; IP
  Latency of Effect: 5 min
[2]; ip
  responders at 1 mg/kg: 100%
Prolactin [3]; [4]
  Serum Prolactin Level: 4.6 ± 0.4
Prolactin [3]; ip, 1 h
  inhibition in vivo at 0.05 mg/kg: 89%

## CCN1C[C@H](CSC)C[C@@H]2c3cccc4[nH]cc(c34)C[C@H]21 [D-6-ethyl-8β-methylmercaptomethylergoline mesylate]
[2]; IP, 1 mg./kg.
  Duration of Effect: ≥ 2 h
[2]; IP
  Latency of Effect: 9 min
[2]; ip
  responders at 1 mg/kg: 100%
Prolactin [3]; [4]
  Serum Prolactin Level: 3.9 ± 0.4
Prolactin [3]; ip, 1 h
  inhibition in vivo at 0.05 mg/kg: 91%

## CN1CC(CC#N)C[C@@H]2c3cccc4[nH]cc(c34)C[C@H]21 (stereo partly drawn) [D-6-methyl-8-cyanomethylergoline]
Prolactin [1]
  activity as prolactin inhibitors (in words): activity as prolactin inhibitors

## CSC[C@@H]1C[C@@H]2c3cccc4[nH]cc(c34)C[C@H]2N(C)C1 [D-6-methyl-8β-methylmercaptomethylergoline mesylate, reference compound]
[2]; IP, 1 mg./kg.
  Duration of Effect: ~ 2 hours
[2]; IP
  Latency of Effect: 30 to 45 min
[2]; ip
  responders at 1 mg/kg: 50%
Prolactin [3]; ip, 1 h
  inhibition in vivo at 0.05 mg/kg: 58%

## CCCN1C[C@H](CSC)C[C@@H]2c3cccc4[nH]cc(c34)C[C@H]21 [D-6-n-Propyl-8β-methylmercaptomethylergoline]
serotonin
  serotonin agonist or antagonist (in words): serotonin agonists rather than serotonin antagonists

## CCCN1CC(CSC)=C[C@@H]2c3cccc4[nH]cc(c34)C[C@H]21 [D-6-n-propyl-8-methylmercaptomethyl-8-ergolene maleate]
[2]; IP, 1 mg./kg.
  Duration of Effect: 1 h
[2]; IP
  Latency of Effect: 4 min
[2]; ip
  responders at 1 mg/kg: 100%
Prolactin [3]; [4]
  Serum Prolactin Level: 3.9 ± 0.2
Prolactin [3]; ip, 1 h
  inhibition in vivo at 0.05 mg/kg: 91%

## CCCN1C[C@H](COC)C[C@@H]2c3cccc4[nH]cc(c34)C[C@H]21 [D-6-n-propyl-8β-methoxymethylergoline methanesulfonate]
[2]; IP, 1 mg./kg.
  Duration of Effect: ≥ 2 h
[2]; IP
  Latency of Effect: 6 min
[2]; ip
  responders at 1 mg/kg: 100%
Prolactin [3]; [4]
  Serum Prolactin Level: 2.4 ± 0.2
Prolactin [3]; ip, 1 h
  inhibition in vivo at 0.05 mg/kg: 96%

## CCCN1C[C@H](CSC)C=C2c3cccc4[nH]cc(c34)C[C@H]21 [D-6-n-propyl-8β-methylmercaptomethyl-9-ergolene]
[2]; IP, 1 mg./kg.
  Duration of Effect: ≥ 2 h
[2]; IP
  Latency of Effect: 4 min
[2]; ip
  responders at 1 mg/kg: 100%
Prolactin [3]; ip, 1 h
  inhibition in vivo at 0.05 mg/kg: 81%

## CCCN1C[C@H](CSC)C[C@@H]2c3cccc4[nH]cc(c34)C[C@H]21 [D-6-n-propyl-8β-methylmercaptomethylergoline methanesulfonate]
[2]; IP, 1 mg./kg., aqueous solution
  responders at 1 mg/kg: 100%
[2]; from dose response curves
  times more potent in the turning behavior test than the corresponding D-6-methyl derivative: about 30 times
Prolactin [3]; 50 mcg/kg IP, 1 hour after treatment, versus control of same experiment
  inhibition in vivo at 0.05 mg/kg: 95%
Prolactin [3]; from dose response curves
  times more potent as a prolactin inhibitor than the corresponding D-6-methyl compound: about 100 times

## CCCN1C[C@H](C[S+](C)[O-])C[C@@H]2c3cccc4[nH]cc(c34)C[C@H]21 (stereo partly drawn) [D-6-n-propyl-8β-methylsulfinylmethylergoline mesylate]
[2]; IP, 1 mg./kg.
  Duration of Effect: 1 h
[2]; IP
  Latency of Effect: 7 min
[2]; ip
  responders at 1 mg/kg: 100%
Prolactin [3]; ip, 1 h
  inhibition in vivo at 0.05 mg/kg: 92%

## CC(C)[C@H]1C(=O)N2CCC[C@H]2[C@]2(O)O[C@](NC(=O)[C@@H]3C[C@@H]4c5cccc6[nH]cc(c56)C[C@H]4N(C)C3)(C(C)C)C(=O)N12 [dihydroergocornine]
Prolactin [1]
  activity as prolactin inhibitors (in words): activity as prolactin inhibitors

## CC(C)[C@H]1C(=O)N2CCC[C@H]2[C@]2(O)O[C@](NC(=O)[C@@H]3C=C4c5cccc6[nH]cc(c56)C[C@H]4N(C)C3)(C(C)C)C(=O)N12 [ergocornine]
Dopamine receptors
  dopamine receptor stimulation (in words): stimulate dopamine receptors
Prolactin [1]
  activity as prolactin inhibitors (in words): activity as prolactin inhibitors

## CN1C[C@H](CC#N)C[C@@H]2c3cccc4[nH]c(Cl)c(c34)C[C@H]21 [lergotrile]
Parkinsonism
  usefulness in the treatment of Parkinsonism (in words): useful in the treatment of Parkinsonism
